Where “and” joins values, the source holds several entries; their conditions need not be identical. Equal entries are not always repeated.
What was measured:
[1] = molecular target: T1, soluble epoxide hydrolase (sEH) (Homo sapiens, UniProt P34913); assay: sEH assay (PHOME substrate, fluorescence); type: biochemical; details: triplicated experiments; 37 °C, pH 7.0, PHOME substrate; read-out: IC50 Value, inhibitory activity on sEH
T1 construct: purchased Cayman (Ann Arbor, MI, USA) 10011669
T1 sequence (P34913 1-555): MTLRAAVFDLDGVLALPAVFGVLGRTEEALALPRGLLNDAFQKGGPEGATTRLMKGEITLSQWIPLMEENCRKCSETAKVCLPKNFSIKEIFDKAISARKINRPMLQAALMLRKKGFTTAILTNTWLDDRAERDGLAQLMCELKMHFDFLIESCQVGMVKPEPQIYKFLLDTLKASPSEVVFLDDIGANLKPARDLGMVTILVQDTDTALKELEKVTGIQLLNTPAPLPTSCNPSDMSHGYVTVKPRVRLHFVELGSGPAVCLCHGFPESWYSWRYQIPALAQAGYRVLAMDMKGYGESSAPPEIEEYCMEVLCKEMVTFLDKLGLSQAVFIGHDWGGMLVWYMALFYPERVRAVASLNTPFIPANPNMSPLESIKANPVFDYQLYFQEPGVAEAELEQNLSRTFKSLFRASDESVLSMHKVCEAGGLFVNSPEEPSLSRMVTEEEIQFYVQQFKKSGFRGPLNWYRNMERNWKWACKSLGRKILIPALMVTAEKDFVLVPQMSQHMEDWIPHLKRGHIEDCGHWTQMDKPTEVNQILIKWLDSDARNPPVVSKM
Protocol: The inhibitory activity of each concentration of compound was calculated based on the difference in enzyme products with and without the presence of the compound using Equation (1). […] To calculate the half-maximal inhibitory concentration of the inhibitors (IC50), inhibition rate values were fitted using Equation (2).
(§1) The assays were carried out at 37 °C in 0.025-M bis-tris-HCL buffer, pH 7.0, containing 0.1% Bovine Serum Albumin B. PHOME (~2.6 μM) was used as a substrate. The final volume of tests was […] in ~10 ng/mL sEH. The products were monitored at 330 nm of excitation and 465 nm emission for 40 min.
The inhibition rate was calculated according to the following equations:Inhibition effect rate (%) = [(ΔC − ΔS)/ΔC] × 100(1) where ΔC and ΔS represent the gap of control and inhibitor during reaction, respectively. y = y0 + [(a × x)/(b + x)](2) where “y0” is the point on the axis of ordinates, “a” denotes the difference between the maximum and minimum values, and “b” refers to the “x” value at 50%.

[2] = molecular target: T1, soluble epoxide hydrolase (sEH); assay: sEH enzyme kinetic study (Lineweaver-Burk and Dixon plots); type: biochemical; details: for Ki: Dixon plots, read-out: ki (inhibition constant); for Binding Mode: Lineweaver-Burk plots
Protocol: The enzyme kinetic study was performed to find the binding position of the inhibitor into sEH. The initial velocity (v0) for the three different concentrations of inhibitors was calculated relative to the substrate concentrations (1.1, 1.5, 2.2, 3.1, 6.2, and 12.5 μM). The inverse of these concentrations and v0 values were used to construct Lineweaver-Burk plots.
As presented in Figure 2F–I and Table 1, the inhibition constant (ki) values were calculated by Dixon plots. Inhibitors 1–4 were calculated to be ki values ranging from 2.9 ± 0.8 μM to […]. Among them, inhibitor 4 had the strongest ki value of 2.9 ± 0.8 μM.
as §1

[3] = parameters: method as in PMID 19794443; details: cited from earlier work

SMILES	IC50 [1]	Ki [2] [µM]	Binding Mode [2]	solubility [3]
O=c1c(OC2O[C@H](CO)[C@@H](O)[C@@H]2O)c(-c2ccc(O)c(O)c2)oc2cc(O)cc(O)c12 (stereo in doubt) [Compound 1, quercetin 3-O-arabinofuranoside]	< 50 µM and 39.3 µM	39.5	Mixed	–
O=C(O)CCCCCCCCCCCNC(=O)NC12CC3CC(CC(C3)C1)C2 [AUDA, 12-(3-adamantan-1-yl-ureido)dodecanoic acid]	–	–	–	low solubility
C[C@@H]1CC[C@]2(C(=O)O)CC[C@]3(C)C(=CC[C@@H]4[C@@]5(C)CC(=O)[C@H](O)C(C)(C)[C@@H]5CC[C@]43C)[C@@H]2[C@]1(C)O [Compound 4, 2-oxopomolic acid]	< 50 µM and 11.4 µM	2.9	Noncompetitive	–
C[C@H]1[C@H](C)CC[C@]2(C(=O)O)CC[C@]3(C)C(=CC[C@@H]4[C@@]5(C)CC[C@H](O)C(C)(C)[C@@H]5CC[C@]43C)[C@H]12 [Compound 2, ursolic acid]	84.5 ± 9.5 µM	38.5	Noncompetitive	–
C[C@H]1[C@H](C)CC[C@]2(C(=O)O)CC[C@]3(C)C(=CC[C@@H]4[C@@]5(C)C[C@@H](O)[C@H](O)C(C)(C)[C@@H]5CC[C@]43C)[C@H]12 [Compound 3, corosolic acid]	51.3 ± 4.9 µM	34.6	Noncompetitive	–
